One test relates to U343MG cells. The test is described as follows: Uptake of boron compounds in U343MG cells in vitro (Example 7). Type of test: cell-based. The conditions noted are these: 2.5 mM in HBSS, two (2) hrs; for uptake (boron) in U343MG cells: 37° C., boron by ICP-OES. The procedure: (§1) In this experiment, the uptake of BPA, FBH FBF, and LBH was carried out to determine which compounds show greater uptake FaDu and U343MG cells. The following protocols were used. Briefly, two (2) assays were performed, one using FaDu cells and the other using U343MG cells. FaDu and U343MG cells were harvested and washed with PBS twice. The count was adjusted to 2 million/ml in HBSS. Boron compounds were added to cells at the final concentration of 2.5 mM in HBSS and the cells were incubated at 37° C., in a humidified 5% CO2 atmosphere for two (2) hrs. with shaking. Following a two (2) hour incubation, cells were harvested and washed twice with ice cold PBS. Cells were then suspended in 1 ml ice cold PBS and a portion (50 μl) was lysed in RIPA buffer and protein content determined by BCA assay. The remaining portion (950 μl) was subjected to nitric acid lysis (66.7% acid at 80° C.). Boron measurements were carried out using ICP-OES. Boronophenylalanine (as fructose solution) was used as a control.

Test [1] has as its system FaDu cells. Nature of the test: Uptake of boron compounds in FaDu cells in vitro (Example 7). The conditions noted are these: 2.5 mM in HBSS, two (2) hrs; for uptake (boron) in FaDu cells: 37° C., boron by ICP-OES, FaDu compared with U343MG. Type of test: cell-based. The procedure: as §1
The test system of test [2] is FaDu cells. Nature of the test: Uptake of boron compounds in FaDu cells in vitro (Example 6). It counts as cell-based. The conditions noted are these: 2.5 mM in HBSS, 37° C., two (2) hrs, boron by ICP-OES; compared with BPA (fructose solution). On the procedure: as §1, with “The” for “In this experiment, the uptake of BPA, FBH FBF, and LBH was carried out to determine which compounds show greater uptake FaDu and U343MG cells. The”, “Briefly,” for “Briefly, two (2) assays were performed, one using”, “FaDu” for “FaDu cells and the other using U343MG cells. FaDu and U343MG”

A further test has as its system intracranial tumor. The conditions noted are these: BNCT, beam directed to surgically exposed intracranial tumor, Japan 1968; cited from earlier work.

Consider `N[C@@H](Cc1ccc(B(O)O)cc1)C(=O)O` [BPA, 4-Borono-L-phenylalanine, reference compound], for which, in the test on U343MG cells, the “uptake (boron) in U343MG cells” value is on record as “sufficient level uptake”. For the same molecule, in the test on FaDu cells [1], the “uptake (boron) in FaDu cells” value was “slightly lower uptake”.
In the case of `N[C@@H](Cc1ccccc1)[B-](F)(F)F.[K+]` [FBF, [(1R)-1-amino-2-phenylethyl]trifluoroboranuide], in the test on U343MG cells, the “uptake (boron) in U343MG cells” value is “sufficient level uptake”. The “uptake relative to the other compounds, U343MG cells” value with U343MG cells (versus BPA, FBH, LBH) was “marginally greater uptake than the other compounds”. In the test with FaDu cells [1], the “uptake (boron) in FaDu cells” value is on record as “slightly lower uptake”. For the same molecule, in the test on FaDu cells [1] (versus BPA, FBH, LBH), the “uptake relative to the other compounds, FaDu cells” value is recorded as “marginally greater uptake than the other compounds”.
On to `N[C@@H](Cc1ccccc1)B(O)O` [FBH, L-phenylalanine boronic acid], for which, in the test with U343MG cells, the “uptake (boron) in U343MG cells” value is given as “sufficient level uptake”. In the test with FaDu cells [1], the “uptake (boron) in FaDu cells” value was “slightly lower uptake”.
For `CC(C)C[C@H](N)B(O)O` [LBH, L-leucine boronic acid], the “uptake (boron) in U343MG cells” value with U343MG cells was “sufficient level uptake”. Besides, the entries for the “uptake (boron) in FaDu cells” value with FaDu cells [2] and with FaDu cells [1] were “lower” and “slightly lower uptake”, respectively.
un-decahydrododecaborane thiol [BSH]: the 5-year survival rate with intracranial tumor is 58%.
